Experimental data: patent US8598364B2, “Oligomer-protease inhibitor conjugates” (Nektar Therapeutics, priority 2007, dated 2013)
Read-outs that look alike come from different tables or passages of the source.

Assays:
CEM-SS cells = assay: in vitro
Procedure: (§1) Compounds were tested at a 1.0 μM high-test concentration in DMSO. CEM-SS cells were passaged in T-75 flasks prior to use in the antiviral assay. On the day preceding the assay, the cells were split 1:2 in order to assure they were in exponential growth phase at the time of infection. Total cell and viability quantification was performed using a hemacytometer and trypan blue exclusion. Cell viability was greater than 95% for the cells to be utilized in the assay. The cells were resuspended at 5×10^4 cells/mL in tissue culture medium and added to the drug-containing microtiter plates in a volume of 50 μL.
(§2) Each plate contains cell control wells (cells only), virus control wells (cells plus virus), compound cytotoxicity wells (cells plus compound only), compound colorimetric control wells (compound only), as well as experimental wells (compound plus cells plus virus). Samples were evaluated with triplicate measurements for antiviral efficacy and duplicate measurements for cytotoxicity. Six concentrations at half-log dilutions were used in order to determine the IC50 values and to measure cellular cytotoxicity, if detectable.
(§3) At assay termination, the assay plates were stained with the soluble tetrazolium-based dye MTS (CellTiter Reagent, Promega) to determine cell viability and quantify compound cytotoxicity. […] At termination of the assay, 20 μL of MTS reagent was added per well. The wells were incubated for four to six hours at 37° C. Adhesive plate sealers were used in place of the lids, the seal plate was inverted several times to mix the soluble formazan product and the plate was read spectrophotometrically at 490/650 nm with a Molecular Devices Vmax plate reader.

HIV-1RF = assay: Anti-HIV-1 efficacy in CEM-SS cells infected with HIV-1RF (MTS staining); assay type: cell-based; conditions: for IC50: read-out: In vitro Activity IC50
Procedure: as §1
The virus used was the lymphocytropic virus strain HIV-1RF. This virus was obtained from the NIH AIDS research and Reference Reagent Program and was grown in CEM-SS cells for the production of stock virus pools. For each assay, a pre-titered aliquot of virus was removed from the freezer and allowed to thaw slowly to room temperature in a biological safety cabinet. The virus was resuspended and diluted into tissue culture medium such that the amount of virus added to each well in a volume of 50 μL was the amount determined to give approximately 90% cell killing in six days post-infection.
as §2, §3

in vitro = conditions: human
Procedure: as §1, §2, §3

retroviral protease = molecular target: T1, retroviral protease (Human immunodeficiency virus type 1 group M subtype B, UniProt P04585); assay: Cell-free assay of protease inhibitor conjugates; assay type: biochemical; conditions: for IC50-fold change / IC90 fold change: relative to atazanavir
T1 construct: any small molecule that can reduce the activity of a retroviral protease

[1] = Table 1, CEM-SS cells, HIV-1RF, 50% inhibition of virus replication, 1.0 μM high-test concentration
[2] = Table 2, atazanavir conjugates, read-out: CEM-SS/HIV-1RF EC50
[3] = Table 4, CEM-SS/HIV-1RF, read-out: EC50
[4] = Human immunodeficiency virus 1, CEM-SS, Table 2, atazanavir conjugates, read-out: CEM-SS/HIV-1RF EC50
[5] = Human immunodeficiency virus 1, Table 4, CEM-SS/HIV-1RF, read-out: EC50
[6] = IC50, Table 3, cell-free assay, atazanavir conjugates
[7] = Table 3, cell-free assay, atazanavir conjugates, read-out: IC50
[8] = Table 3, cell-free assay, atazanavir conjugates, read-out: IC90

Compound “15-di-m-PEG-7-NCO-Saquinavir [di-15-m-PEG-7-NCO-Saquinavir]” has a CC50 (CEM-SS cells) of over 1000 nM and an IC50 (HIV-1RF; [1]) of 560 nM.
Work on 15-m-PEG-7-NHCO-Saquinavir yielded a CC50 (CEM-SS cells) of over 1000 nM and an IC50 (HIV-1RF; [1]) of 50 nM.
In the case of 26-m-PEG-3-O-Saquinavir, the CC50 (CEM-SS cells) is reported as over 1000 nM and the “In vitro Activity IC50” value (HIV-1RF; [1]) is reported as “no activity”.
For 26-m-PEG-7-O-Saquinavir, the CC50 (CEM-SS cells) was over 1000 nM and the “In vitro Activity IC50” value (HIV-1RF; [1]) was “no activity”.
In the case of `Cc1cn([C@H]2C[C@H](N=[N+]=[N-])[C@@H](CO)O2)c(=O)[nH]c1=O` [AZT, reference compound], the CC50 (CEM-SS cells) is reported as over 1000 nM, the EC50 (HIV-1RF; [2]) is reported as 1 nM and the EC50 (HIV-1RF; [3]) is reported as 1 nM. It also gave an EC50 (HIV-1RF; Table 5, tipranavir conjugates in cell-based assay, read-out: CEM-SS/HIV-1RF EC50) of 2 nM and an EC50 (HIV-1RF; Table 7, darunavir conjugates in cell-based assay, read-out: CEM-SS/HIV-1RF EC50) of 5 nM.
For `COC(=O)N[C@H](C(=O)N[C@@H](Cc1ccccc1)[C@@H](O)CN(Cc1ccc(-c2ccccn2)cc1)NC(=O)[C@@H](NC(=O)OC)C(C)(C)C)C(C)(C)C` [Atazanavir, atazanavir, reference compound], the CC50 (in vitro) was 54900 nM, the EC50 (HIV-1RF; [4]) was 12 nM and the EC50 (HIV-1RF; [5]) was 12 nM. It also gave an IC90 (retroviral protease) of 31.8 nM, an IC50 (retroviral protease; [6]) of 6.92 nM and an IC50-fold change (retroviral protease; Table 3, cell-free assay) of 1.0. For the same compound, the IC90 fold change (retroviral protease; Table 3, cell-free assay) was 1.0.
With `CC(C)CN(C[C@@H](O)[C@H](Cc1ccccc1)NC(=O)O[C@H]1CO[C@H]2OCC[C@H]21)S(=O)(=O)c1ccc(N)cc1` [Darunavir, darunavir, reference compound] the EC50 (HIV-1RF; Human immunodeficiency virus 1, CEM-SS, read-out: CEM-SS/HIV-1RF EC50) was under 0.7 nM.
`CC(C)(C)NC(=O)[C@@H]1C[C@@H]2CCCC[C@@H]2CN1C[C@@H](O)[C@H](Cc1ccccc1)NC(=O)[C@H](CC(N)=O)NC(=O)c1ccc2ccccc2n1` [Saquinavir, saquinavir, reference compound] showed a CC50 (in vitro) of over 100 nM and an IC50 (HIV-1RF; Human immunodeficiency virus 1, CEM-SS) of 2 nM.
Compound `CCC[C@@]1(CCc2ccccc2)CC(O)=C([C@H](CC)c2cccc(NS(=O)(=O)c3ccc(C(F)(F)F)cn3)c2)C(=O)O1` [Tipranavir, tipranavir, reference compound] has a CC50 (in vitro) of 30600 nM, an EC50 (HIV-1RF; Human immunodeficiency virus 1, CEM-SS, Table 5, tipranavir conjugates in cell-based assay, read-out: CEM-SS/HIV-1RF EC50) of 120 nM and an IC50 (retroviral protease; IC50, Table 6, tipranavir conjugates in cell-free assay) of 7.2 nM.
For `COCCOCCOCCOC(=O)NC(C(=O)NC(Cc1ccccc1)C(O)CN(Cc1ccc(-c2ccccn2)cc1)NC(=O)C(NC(=O)OCCOCCOCCOC)C(C)(C)C)C(C)(C)C` (stereo not shown) [di-mPEG-3-Atazanavir, di-mPEG3-Atazanavir], the CC50 (in vitro) was 95700 nM, the EC50 (HIV-1RF; [4]) was 38 nM and the EC50 (HIV-1RF; [5]) was 38 nM. For the same compound, the IC90 (retroviral protease) was 53.7 nM, the IC50 (retroviral protease; [6]) was 12.7 nM and the IC50-fold change (retroviral protease; Table 3, cell-free assay) was 1.8. The IC90 fold change (retroviral protease; Table 3, cell-free assay) was 1.7.
With `COCCOCCOCCOCCOCCOCCOCCOC(=O)NC(C(=O)NC(Cc1ccccc1)C(O)CN(Cc1ccc(-c2ccccn2)cc1)NC(=O)C(NC(=O)OCCOCCOCCOCCOCCOCCOCCOC)C(C)(C)C)C(C)(C)C` (stereo not shown) [di-mPEG-7-Atazanavir, di-mPEG7-Atazanavir] the CC50 (in vitro) was over 200000 nM, the CC50 (CEM-SS cells; human) was over 200000 nM and the EC50 (HIV-1RF; [4]) was 8400 nM. It also gave an EC50 (HIV-1RF; [5]) of 8400 nM, an IC90 (retroviral protease) of 39.9 nM and an IC50 (retroviral protease; [6]) of 10.9 nM. It also gave an IC50-fold change (retroviral protease; Table 3, cell-free assay) of 1.6 and an IC90 fold change (retroviral protease; Table 3, cell-free assay) of 1.3.
Work on “di-mPEG5-Atazanavir [di-mPEG-5-Atazanavir]” yielded a CC50 (CEM-SS cells) of over 200000 nM, an EC50 (HIV-1RF; [2]) of 1100 nM and an EC50 (HIV-1RF; [3]) of 1100 nM. For the same compound, the IC50 (retroviral protease; [7]) was 17.3 nM, the IC90 (retroviral protease; [8]) was 47.6 nM and the IC50-fold change (retroviral protease; Table 3, cell-free assay) was 2.5. It also gave an IC90 fold change (retroviral protease; Table 3, cell-free assay) of 1.5.
Compound “di-mPEG6-Atazanavir [di-mPEG-6-Atazanavir]” has a CC50 (CEM-SS cells) of 159000 nM, an EC50 (HIV-1RF; [2]) of 2500 nM and an EC50 (HIV-1RF; [3]) of 2500 nM. For the same compound, the IC50 (retroviral protease; [7]) was 15.6 nM, the IC90 (retroviral protease; [8]) was 67.8 nM and the IC50-fold change (retroviral protease; Table 3, cell-free assay) was 2.3. It also gave an IC90 fold change (retroviral protease; Table 3, cell-free assay) of 2.1.
